Results on 29 compounds are retold here after BindingDB's records for doi:10.1016/s0960-894x(01)00306-7 (Atherogenics, 2001).

SMILES strings stand for the structures.

This assay in a line: Ability to inhibit expression of Vascular cell adhesion molecule 1.

In the case of `CN1CCN(S(=O)(=O)c2ccc(Cl)c([N+](=O)[O-])c2)CC1` [1-(4-Chloro-3-nitro-benzenesulfonyl)-4-methyl-piperazine], the IC50 (commonly the concentration at which inhibition is half-maximal) was determined as 8 µM.

With `CCOC(=O)C1CCN(S(=O)(=O)c2ccc(Cl)c([N+](=O)[O-])c2)CC1` [1-(4-Chloro-3-nitro-benzenesulfonyl)-piperidine-4-carboxylic acid ethyl ester], the midpoint of inhibition, the IC50, lay at 8 µM.

The compound `O=[N+]([O-])c1cc(S(=O)(=O)N2CCCC2)ccc1Cl` [1-(4-Chloro-3-nitro-benzenesulfonyl)-pyrrolidine] had an IC50 of 4 µM.

Compound `O=[N+]([O-])c1cc(S(=O)(=O)c2ccc(F)c([N+](=O)[O-])c2)ccc1F` [1-fluoro-4-[(4-fluoro-3-nitrophenyl)sulfonyl]-2-nitrobenzene] came in with an IC50 of 7 µM. This IC50 lies about 1.8-fold higher than the previous one.

Compound `CN(CCCN(C)S(=O)(=O)c1ccc(Cl)c([N+](=O)[O-])c1)S(=O)(=O)c1ccc(Cl)c([N+](=O)[O-])c1` [1N-{3-[4-chloro-3-nitrophenyl(methyl)sulfonamido]propyl}-1N-methyl-4-chloro-3-nitro-1-benzenesulfonamide] showed an IC50 of 6 µM.

The compound `CN(CCCCCCN(C)S(=O)(=O)c1ccc(Cl)c([N+](=O)[O-])c1)S(=O)(=O)c1ccc(Cl)c([N+](=O)[O-])c1` [1N-{6-[4-chloro-3-nitrophenyl(methyl)sulfonamido]hexyl}-1N-methyl-4-chloro-3-nitro-1-benzenesulfonamide] displayed an IC50 of 30 µM.

As to `N#Cc1cc([N+](=O)[O-])ccc1Cl` [2-Chloro-5-nitro-benzonitrile], the IC50 was determined as 17 µM.

Compound `N#Cc1cc([N+](=O)[O-])cc([N+](=O)[O-])c1` [3,5-Dinitro-benzonitrile] showed an IC50 of 10 µM.

Compound `N#Cc1ccc(Cl)cc1[N+](=O)[O-]` [4-Chloro-2-nitro-benzonitrile] showed an IC50 of 5 µM.

Compound `N#Cc1cc([N+](=O)[O-])c(Cl)c([N+](=O)[O-])c1` [4-Chloro-3,5-dinitro-benzonitrile] had an IC50 of 20 µM. Against the preceding compound, the IC50 is about 4-fold higher.

In the case of `CCCCCN(CCCCC)S(=O)(=O)c1ccc(Cl)c([N+](=O)[O-])c1` [4-Chloro-3-nitro-N,N-dipentyl-benzenesulfonamide], half-maximal inhibition (IC50) was put at 7 µM.

Take `CCCN(CCC)S(=O)(=O)c1ccc(Cl)c([N+](=O)[O-])c1` [4-Chloro-3-nitro-N,N-dipropyl-benzenesulfonamide]: the IC50 is 9 µM.

Compound `O=Cc1ccc(Cl)c([N+](=O)[O-])c1` [4-Chloro-3-nitro-benzaldehyde] came in with an IC50 of 15 µM. Against the preceding compound, the IC50 is about 1.7-fold higher.

`NS(=O)(=O)c1ccc(Cl)c([N+](=O)[O-])c1` [4-Chloro-3-nitro-benzenesulfonamide] returned an IC50 of 40 µM.

`N#Cc1ccc(Cl)c([N+](=O)[O-])c1` [4-Chloro-3-nitro-benzonitrile]: inhibition was half-maximal at 11 µM (IC50).

`O=[N+]([O-])c1cc(S(=O)(=O)N(CCO)CCO)ccc1Cl` [4-Chloro-N,N-bis-(2-hydroxy-ethyl)-3-nitro-benzenesulfonamide] showed an IC50 of 19 µM. This IC50 lies about 1.7-fold higher than the previous one.

`COCCN(CCOC)S(=O)(=O)c1ccc(Cl)c([N+](=O)[O-])c1` [4-Chloro-N,N-bis-(2-methoxy-ethyl)-3-nitro-benzenesulfonamide] had an IC50 of 5 µM.

For `CCN(CC)S(=O)(=O)c1ccc(Cl)c([N+](=O)[O-])c1` [4-Chloro-N,N-diethyl-3-nitro-benzenesulfonamide], the IC50 amounted to 3 µM.

In turn, `CC(C)N(C(C)C)S(=O)(=O)c1ccc(Cl)c([N+](=O)[O-])c1` [4-Chloro-N,N-diisopropyl-3-nitro-benzenesulfonamide] returned an IC50 of 10 µM.

`CN(C)S(=O)(=O)c1ccc(Cl)c([N+](=O)[O-])c1` [4-Chloro-N,N-dimethyl-3-nitro-benzenesulfonamide] registered an IC50 of 10 µM.

Compound `CCNS(=O)(=O)c1ccc(Cl)c([N+](=O)[O-])c1` [4-Chloro-N-ethyl-3-nitro-benzenesulfonamide] returned an IC50 of 15 µM.

Consider `CCN(C(C)C)S(=O)(=O)c1ccc(Cl)c([N+](=O)[O-])c1` [4-Chloro-N-ethyl-N-isopropyl-3-nitro-benzenesulfonamide], for which the midpoint of inhibition, the IC50, lay at 15 µM.

The compound `CCN(C)S(=O)(=O)c1ccc(Cl)c([N+](=O)[O-])c1` [4-Chloro-N-ethyl-N-methyl-3-nitro-benzenesulfonamide] returned an IC50 of 10 µM. Against the preceding compound, the IC50 is about 1.5-fold lower.

For `CNS(=O)(=O)c1ccc(Cl)c([N+](=O)[O-])c1` [4-Chloro-N-methyl-3-nitro-benzenesulfonamide], the IC50 worked out at 11 µM.

`COC(=O)c1ccc(S(C)(=O)=O)c([N+](=O)[O-])c1` [4-Methanesulfonyl-3-nitro-benzoic acid methyl ester] gave an IC50 of 5 µM. Compared with the last compound, the IC50 is about 2.2-fold lower.

`O=C(c1ccccc1)c1ccc(Cl)c([N+](=O)[O-])c1` [(4-Chloro-3-nitro-phenyl)-phenyl-methanone]: the IC50 was 15 µM.

With `O=C(c1ccc(Cl)c([N+](=O)[O-])c1)c1ccc(Cl)c([N+](=O)[O-])c1` [Bis-(4-chloro-3-nitro-phenyl)-methanone], the IC50 is 5 µM.

With `CCCCN(CCCC)S(=O)(=O)c1ccc(Cl)c([N+](=O)[O-])c1` [N,N-Dibutyl-4-chloro-3-nitro-benzenesulfonamide], the IC50 came out at 10 µM. This IC50 lies about 2-fold higher than the previous one.

`O=[N+]([O-])c1cc(S(=O)(=O)NCc2ccccc2)ccc1Cl` [N-Benzyl-4-chloro-3-nitro-benzenesulfonamide] came in with an IC50 of 18 µM. Against the preceding compound, the IC50 is about 1.8-fold higher.
